Laboratory results published in ChEMBL document CHEMBL5236617, “Rapid Evolution of a Fragment-like Molecule to Pan-Metallo-Beta-Lactamase Inhibitors: Initial Leads toward Clinical Candidates” (J Med Chem, 2022).
“And” between values parts separate entries of the source, which are not always exact repeats. Identical values can stand only once. The source made the active and inactive calls. The rule behind the calls is not given here.

Columns and labels:
[1] = Inhibition of GST-tagged bacterial beta-lactamase VIM-1 expressed in Escherichia coli BL21(DE3) using CCF2-FA as substrate by fluorescence assay; design: species or system Bacteria
[2] = Inhibition of GST-tagged bacterial beta-lactamase […] expressed in Escherichia coli BL21(DE3) using CCF2-FA as substrate by fluorescence assay; design: species or system Bacteria
[3] = Inhibition of GST-tagged bacterial beta-lactamase IMP-1 expressed in Escherichia coli BL21(DE3) using CCF2-FA as substrate by fluorescence assay; design: species or system Bacteria
[4] = test system: Escherichia coli; experiment: Potentiation of imipenem-induced antibacterial activity against NDM-1 expressing Escherichia coli assessed as imipenem MIC incubated for 22 to 24 hrs (reference value: 32 ug/ml); format: functional; settings: time 22-24 hrs
[5] = test system: Klebsiella pneumoniae; experiment: Potentiation of imipenem-induced antibacterial activity against VIM-1 expressing Klebsiella pneumoniae assessed as imipenem MIC incubated for 22 to 24 hrs (reference value: 16 ug/ml); format: functional; settings: time 22-24 hrs
[6] = Selectivity ratio of MITC50 for VIM-1 expressing Klebsiella pneumoniae to IC50 for GST-tagged bacterial beta-lactamase VIM-1
[7] = test system: Escherichia coli; experiment: Antibacterial activity against Escherichia coli CLB30005 expressing NDM-1 assessed as growth inhibition in presence of ZnSO4; format: functional, organism-based
[8] = Selectivity ratio of MITC50 for NDM-1 expressing Escherichia coli to IC50 for GST-tagged bacterial beta-lactamase […]
[9] = test system: Serratia marcescens; experiment: Potentiation of imipenem-induced antibacterial activity against IMP-1 expressing Serratia marcescens assessed as imipenem MIC incubated for 22 to 24 hrs (reference value: 16 ug/ml); format: functional; settings: time 22-24 hrs
[10] = Selectivity ratio of MITC50 for IMP-1 expressing Serratia marcescens to IC50 for GST-tagged bacterial beta-lactamase IMP-1
[11] = test system: Klebsiella pneumoniae; experiment: Antibacterial activity against Klebsiella pneumoniae MB9249 expressing IMP-26 infected in cyclophosphamide treated DBA/2 mouse assessed as reduction in bacterial burden in spleen at 5 mg/kg, sc administered three times for 1 day and measured after 24 hrs post injection; format: functional, organism-based
[12] = test system: Klebsiella pneumoniae; experiment: Antibacterial activity against Klebsiella pneumoniae MB9249 expressing IMP-26 infected in cyclophosphamide treated DBA/2 mouse assessed as reduction in bacterial burden in kidney at 5 mg/kg, sc administered three times for 1 day and measured after 24 hrs post injection; format: functional, organism-based
[13] = test system: Klebsiella pneumoniae; experiment: Antibacterial activity against Klebsiella pneumoniae MB9249 expressing IMP-26 infected in cyclophosphamide treated DBA/2 mouse assessed as reduction in bacterial burden in spleen at 10 to 50 mg/kg, sc administered three times for 1 day and measured after 24 hrs post injection; format: functional, organism-based; settings: dose 10-50 mg/kg
[14] = test system: Klebsiella pneumoniae; experiment: Antibacterial activity against Klebsiella pneumoniae MB9249 expressing IMP-26 infected in cyclophosphamide treated DBA/2 mouse assessed as reduction in bacterial burden in kidney at 10 to 50 mg/kg, sc administered three times for 1 day and measured after 24 hrs post injection; format: functional, organism-based; settings: dose 10-50 mg/kg
[15] = test system: Klebsiella pneumoniae; experiment: Antibacterial activity against Klebsiella pneumoniae MB9249 expressing IMP-26 infected in cyclophosphamide treated DBA/2 mouse assessed as reduction in bacterial burden in kidney at 10 to 50 mg/kg, sc administered three times for 1 day and measured after 24 hrs post injection in presence of imipenem; format: functional, organism-based; settings: dose 10-50 mg/kg
[16] = test system: Klebsiella pneumoniae; experiment: Antibacterial activity against Klebsiella pneumoniae MB9249 expressing IMP-26 infected in cyclophosphamide treated DBA/2 mouse assessed as reduction in bacterial burden in spleen at 10 to 50 mg/kg, sc administered three times for 1 day and measured after 24 hrs post injection in presence of imipenem; format: functional, organism-based; settings: dose 10-50 mg/kg
[17] = Inhibition of Cav1.5 (unknown origin); design: species or system Homo sapiens
[18] = Volume of distribution at steady state in mouse at 5 mg/kg, iv; format: ADME, organism-based; settings: in vivo, read-out: Vdss
[19] = Plasma protein binding in C57BL/6 mouse assessed as unbound fraction; format: ADME, cell-free
[20] = target: CYP3A4 (Homo sapiens, UniProt P08684); experiment: in vitro
Sequence of CYP3A4 (P08684 whole entry): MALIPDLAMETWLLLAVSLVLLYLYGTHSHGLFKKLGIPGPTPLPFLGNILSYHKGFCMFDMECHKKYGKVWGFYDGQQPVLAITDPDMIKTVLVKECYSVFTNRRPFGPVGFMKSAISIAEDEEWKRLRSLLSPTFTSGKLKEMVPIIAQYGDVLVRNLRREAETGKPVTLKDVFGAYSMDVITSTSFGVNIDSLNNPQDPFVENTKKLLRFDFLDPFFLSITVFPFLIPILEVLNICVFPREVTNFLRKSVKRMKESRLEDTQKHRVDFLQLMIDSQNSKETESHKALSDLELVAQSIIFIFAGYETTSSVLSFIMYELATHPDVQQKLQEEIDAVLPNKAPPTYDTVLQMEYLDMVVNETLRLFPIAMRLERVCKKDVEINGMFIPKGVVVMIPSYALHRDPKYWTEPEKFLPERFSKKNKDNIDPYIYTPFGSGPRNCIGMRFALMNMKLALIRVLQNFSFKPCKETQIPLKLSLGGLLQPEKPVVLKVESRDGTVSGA
Description: Selectivity ratio of time dependent inhibition of CYP3A4 (unknown origin) in presence of NADPH to time dependent inhibition of CYP3A4 (unknown origin) in absence of NADPH

[21] = target: Cytochrome P450 3A4 (Homo sapiens, UniProt P08684); experiment: Reversible inhibition of CYP3A4 (unknown origin); format: ADME
Sequence of Cytochrome P450 3A4 (P08684 whole entry): as above

[22] = AUC in mouse at 50 mg/kg, sc; format: ADME, organism-based; design: dose 50 mg/kg, route sc; settings: in vivo
[23] = target: Sodium channel protein type 5 subunit alpha (Homo sapiens, UniProt Q14524); experiment: Inhibition of Nav1.5 (unknown origin)
Sequence of Sodium channel protein type 5 subunit alpha (Q14524 whole entry): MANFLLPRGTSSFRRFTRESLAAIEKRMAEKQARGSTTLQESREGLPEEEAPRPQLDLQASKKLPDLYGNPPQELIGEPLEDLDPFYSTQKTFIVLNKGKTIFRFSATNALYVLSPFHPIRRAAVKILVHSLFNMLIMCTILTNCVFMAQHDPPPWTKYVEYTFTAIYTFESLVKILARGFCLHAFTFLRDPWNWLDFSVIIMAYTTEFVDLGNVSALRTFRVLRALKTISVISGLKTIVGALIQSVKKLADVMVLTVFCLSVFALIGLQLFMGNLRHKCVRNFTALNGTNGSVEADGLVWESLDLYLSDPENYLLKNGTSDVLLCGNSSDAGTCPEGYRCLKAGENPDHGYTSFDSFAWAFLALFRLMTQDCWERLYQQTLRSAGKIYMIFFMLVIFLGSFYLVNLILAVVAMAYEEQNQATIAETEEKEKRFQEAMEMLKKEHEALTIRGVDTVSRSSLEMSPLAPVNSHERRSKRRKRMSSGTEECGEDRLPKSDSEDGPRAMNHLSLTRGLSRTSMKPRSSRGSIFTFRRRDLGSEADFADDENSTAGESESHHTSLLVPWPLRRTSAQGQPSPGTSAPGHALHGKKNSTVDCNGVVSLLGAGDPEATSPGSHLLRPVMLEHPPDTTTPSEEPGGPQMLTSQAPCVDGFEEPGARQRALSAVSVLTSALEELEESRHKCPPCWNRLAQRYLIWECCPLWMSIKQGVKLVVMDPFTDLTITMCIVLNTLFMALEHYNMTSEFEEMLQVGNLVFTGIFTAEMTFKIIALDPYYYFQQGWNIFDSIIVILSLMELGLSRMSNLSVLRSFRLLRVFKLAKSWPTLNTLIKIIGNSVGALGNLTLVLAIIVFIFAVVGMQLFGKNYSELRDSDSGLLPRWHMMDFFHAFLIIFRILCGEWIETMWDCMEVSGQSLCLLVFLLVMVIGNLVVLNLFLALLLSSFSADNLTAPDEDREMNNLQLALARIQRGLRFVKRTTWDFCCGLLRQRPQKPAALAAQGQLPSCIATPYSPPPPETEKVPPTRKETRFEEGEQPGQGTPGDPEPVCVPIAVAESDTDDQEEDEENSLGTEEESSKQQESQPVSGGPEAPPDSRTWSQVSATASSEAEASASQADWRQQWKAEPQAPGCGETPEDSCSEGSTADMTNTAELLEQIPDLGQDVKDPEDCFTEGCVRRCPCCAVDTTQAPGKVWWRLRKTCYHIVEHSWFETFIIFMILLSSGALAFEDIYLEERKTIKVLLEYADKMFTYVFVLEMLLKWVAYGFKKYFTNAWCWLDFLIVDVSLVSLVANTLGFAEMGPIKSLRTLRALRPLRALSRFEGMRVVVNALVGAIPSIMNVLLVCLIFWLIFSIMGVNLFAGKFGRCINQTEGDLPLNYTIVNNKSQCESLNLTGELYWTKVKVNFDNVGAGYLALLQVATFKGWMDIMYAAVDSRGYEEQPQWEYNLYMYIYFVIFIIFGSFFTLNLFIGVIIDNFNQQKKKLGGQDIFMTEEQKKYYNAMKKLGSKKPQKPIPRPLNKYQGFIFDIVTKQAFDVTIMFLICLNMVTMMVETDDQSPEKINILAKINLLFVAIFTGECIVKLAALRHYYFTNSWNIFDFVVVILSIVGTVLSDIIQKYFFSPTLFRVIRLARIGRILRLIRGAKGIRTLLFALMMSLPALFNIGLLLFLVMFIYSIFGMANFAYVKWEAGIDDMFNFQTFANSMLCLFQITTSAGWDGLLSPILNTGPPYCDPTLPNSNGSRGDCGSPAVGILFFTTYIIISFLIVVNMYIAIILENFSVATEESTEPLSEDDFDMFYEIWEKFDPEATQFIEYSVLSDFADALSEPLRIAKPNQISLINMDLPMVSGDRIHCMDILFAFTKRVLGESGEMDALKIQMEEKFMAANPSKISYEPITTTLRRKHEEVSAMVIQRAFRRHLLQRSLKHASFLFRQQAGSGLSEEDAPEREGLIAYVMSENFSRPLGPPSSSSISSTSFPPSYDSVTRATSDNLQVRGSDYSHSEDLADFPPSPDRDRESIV

[24] = target: Cytochrome P450 2C9 (Homo sapiens, UniProt P11712); experiment: Reversible inhibition of CYP2C9 (unknown origin); format: ADME
Sequence of Cytochrome P450 2C9 (P11712 whole entry): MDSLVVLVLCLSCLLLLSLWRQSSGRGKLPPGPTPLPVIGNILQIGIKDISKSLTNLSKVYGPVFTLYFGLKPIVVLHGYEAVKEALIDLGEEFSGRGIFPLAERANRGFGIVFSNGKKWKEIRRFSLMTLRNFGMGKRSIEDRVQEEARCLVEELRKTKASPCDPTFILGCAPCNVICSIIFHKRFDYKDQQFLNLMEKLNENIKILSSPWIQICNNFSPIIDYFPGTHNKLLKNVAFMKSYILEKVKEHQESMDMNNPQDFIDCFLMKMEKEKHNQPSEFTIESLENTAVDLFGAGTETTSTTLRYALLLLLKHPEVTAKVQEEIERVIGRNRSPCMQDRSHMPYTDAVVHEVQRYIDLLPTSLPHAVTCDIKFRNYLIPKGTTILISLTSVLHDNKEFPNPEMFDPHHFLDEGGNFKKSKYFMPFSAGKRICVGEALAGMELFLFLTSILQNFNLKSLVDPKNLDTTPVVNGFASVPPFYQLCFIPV

[25] = Cmax in mouse at 10 mg/kg, sc; format: ADME, organism-based; design: dose 10 mg/kg, route sc; settings: in vivo
[26] = AUC in mouse at 10 mg/kg, sc; format: ADME, organism-based; design: dose 10 mg/kg, route sc; settings: in vivo
[27] = Tmax in mouse at 50 mg/kg, sc; format: ADME, organism-based; settings: in vivo
[28] = Plasma protein binding in Wistar Han rat assessed as unbound fraction; format: ADME, cell-free
[29] = Tmax in mouse at 10 mg/kg, sc; format: ADME, organism-based; settings: in vivo
[30] = MRT in mouse at 5 mg/kg, iv; format: ADME, organism-based; settings: in vivo
[31] = Clearance in mouse at 5 mg/kg, iv; format: ADME, organism-based; settings: in vivo
[32] = target: Voltage-gated inwardly rectifying potassium channel KCNH2 (Homo sapiens, UniProt Q12809); experiment: Displacement of MK499 from human ERG
Sequence of Voltage-gated inwardly rectifying potassium channel KCNH2 (Q12809 whole entry): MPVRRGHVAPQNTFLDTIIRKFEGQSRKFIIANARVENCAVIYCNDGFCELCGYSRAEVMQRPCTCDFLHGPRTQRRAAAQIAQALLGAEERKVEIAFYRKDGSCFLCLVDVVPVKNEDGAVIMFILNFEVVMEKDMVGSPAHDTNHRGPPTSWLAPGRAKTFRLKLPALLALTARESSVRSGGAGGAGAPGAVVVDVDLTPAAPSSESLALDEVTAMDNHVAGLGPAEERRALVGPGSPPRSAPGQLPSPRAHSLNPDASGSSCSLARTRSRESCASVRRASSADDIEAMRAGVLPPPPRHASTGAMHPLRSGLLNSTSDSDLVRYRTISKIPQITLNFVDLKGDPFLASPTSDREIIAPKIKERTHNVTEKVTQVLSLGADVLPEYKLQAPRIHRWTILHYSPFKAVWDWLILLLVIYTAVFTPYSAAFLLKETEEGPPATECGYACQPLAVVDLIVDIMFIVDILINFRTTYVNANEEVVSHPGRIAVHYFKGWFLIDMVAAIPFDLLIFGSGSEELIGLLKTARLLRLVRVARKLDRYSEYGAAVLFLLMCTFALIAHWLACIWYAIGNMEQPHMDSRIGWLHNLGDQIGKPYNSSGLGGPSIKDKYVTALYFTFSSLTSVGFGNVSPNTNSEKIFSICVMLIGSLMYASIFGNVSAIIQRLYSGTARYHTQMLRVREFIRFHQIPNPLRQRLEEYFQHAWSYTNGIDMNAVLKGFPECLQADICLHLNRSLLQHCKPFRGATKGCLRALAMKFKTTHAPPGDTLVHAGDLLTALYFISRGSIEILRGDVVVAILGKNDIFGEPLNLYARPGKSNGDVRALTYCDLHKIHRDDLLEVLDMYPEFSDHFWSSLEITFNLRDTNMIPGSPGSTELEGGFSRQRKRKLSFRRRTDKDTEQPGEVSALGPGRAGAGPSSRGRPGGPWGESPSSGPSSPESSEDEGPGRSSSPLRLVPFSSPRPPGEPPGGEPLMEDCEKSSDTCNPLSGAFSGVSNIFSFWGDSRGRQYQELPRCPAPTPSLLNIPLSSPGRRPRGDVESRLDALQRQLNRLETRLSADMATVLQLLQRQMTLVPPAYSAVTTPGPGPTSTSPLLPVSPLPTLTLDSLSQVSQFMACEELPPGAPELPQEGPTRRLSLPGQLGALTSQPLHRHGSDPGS

[33] = target: Cytochrome P450 2D6 (Homo sapiens, UniProt P10635); experiment: Reversible inhibition of CYP2D6 (unknown origin); format: ADME
Sequence of Cytochrome P450 2D6 (P10635 whole entry): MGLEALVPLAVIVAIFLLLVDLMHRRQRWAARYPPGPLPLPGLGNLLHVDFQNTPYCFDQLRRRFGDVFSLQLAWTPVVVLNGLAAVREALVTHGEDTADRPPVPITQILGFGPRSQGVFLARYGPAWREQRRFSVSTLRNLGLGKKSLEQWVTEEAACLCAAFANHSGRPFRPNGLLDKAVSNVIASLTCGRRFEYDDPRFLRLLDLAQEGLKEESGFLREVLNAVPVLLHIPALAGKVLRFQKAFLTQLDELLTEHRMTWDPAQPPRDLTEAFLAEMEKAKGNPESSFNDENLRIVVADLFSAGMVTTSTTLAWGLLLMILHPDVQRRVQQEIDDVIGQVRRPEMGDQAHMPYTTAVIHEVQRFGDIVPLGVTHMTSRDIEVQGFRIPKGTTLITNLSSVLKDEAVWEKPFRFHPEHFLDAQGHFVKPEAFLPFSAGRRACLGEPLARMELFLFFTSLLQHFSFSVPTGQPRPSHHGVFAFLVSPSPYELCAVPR

[34] = AUC in mouse at 5 mg/kg, iv; format: ADME, organism-based; design: dose 5 mg/kg, route iv; settings: in vivo
[35] = target: T1, PXR (NR1I2) (Homo sapiens, UniProt O75469); experiment: Inhibition of human PXR at 30 uM relative to control
T1 sequence (O75469 whole entry): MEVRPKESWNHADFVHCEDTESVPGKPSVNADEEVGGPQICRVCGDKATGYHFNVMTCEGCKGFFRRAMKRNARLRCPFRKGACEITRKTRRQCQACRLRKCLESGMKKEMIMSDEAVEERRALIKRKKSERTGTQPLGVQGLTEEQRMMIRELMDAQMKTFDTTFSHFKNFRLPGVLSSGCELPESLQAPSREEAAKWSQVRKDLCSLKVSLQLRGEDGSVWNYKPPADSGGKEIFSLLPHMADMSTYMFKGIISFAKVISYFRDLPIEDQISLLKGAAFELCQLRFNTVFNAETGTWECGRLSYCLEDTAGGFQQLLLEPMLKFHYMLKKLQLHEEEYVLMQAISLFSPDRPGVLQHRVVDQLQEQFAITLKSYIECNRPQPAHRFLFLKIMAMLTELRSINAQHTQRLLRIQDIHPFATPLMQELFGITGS

[36] = Cmax in mouse at 50 mg/kg, sc; format: ADME, organism-based; design: dose 50 mg/kg, route sc; settings: in vivo
[37] = Plasma protein binding in human assessed as unbound fraction; format: ADME, cell-free
[38] = target: T2, Nuclear receptor subfamily 1 group I member 2 (Homo sapiens, UniProt O75469); experiment: Inhibition of human PXR
T2 sequence (O75469 whole entry): T1 sequence (O75469 whole entry)

Compound: CC(CS)C(=O)N1CCc2ccccc2C1C(=O)O (stereo not given)
- IC50 [1]: 7.4 nM
- IC50 [2]: 3.5 nM
- IC50 [3]: 2.7 nM

Compound: CCCCc1nc2ccc(O)cc2c(=O)n1Cc1ccc(-c2ccccc2-c2nnn[nH]2)cc1
- IC50 [1]: 13 nM
- IC50 [2]: 52 nM

Compound: NS(=O)(=O)c1cncc(-c2ccc(CO)cc2)c1-c1nn[nH]n1
- IC50 [1]: 670 nM
- IC50 [2]: 21 nM
- MITC95 [4]: 1.56 µM
- MITC95 [5]: 100 µM
- IC50 [3]: 678 nM

Compound: Cc1ccc(-c2cccc(S(N)(=O)=O)c2-c2nnn[nH]2)cc1
- IC50 [1]: 57.5 nM and 57 nM
- IC50 [2]: 3.9 nM and 3.7 nM
- Selectivity ratio [6]: 2230
- Activity [7]: inactive
- MITC95 [4]: 1.48 µM
- MITC95 [5]: 127 µM
- Selectivity ratio [8]: 400
- IC50 [3]: 64 nM
- MITC95 [9]: 13.8 µM
- Selectivity ratio [10]: 215

Compound: Cc1ccc(-c2cccc(C(=O)O)c2-c2nnn[nH]2)cc1
- IC50 [1]: 6960 nM
- IC50 [2]: 3170 nM
- IC50 [3]: 2410 nM

Compound: C[C@@H](O)[C@H]1C(=O)N2C(C(=O)O)=C(SCCNC=N)C[C@H]12
- Activity [11]: Active
- Activity [12]: Active

Compound: OCc1ccc(-c2cccc(O)c2-c2nnn[nH]2)cc1
- IC50 [1]: 7200 nM
- IC50 [2]: 704 nM
- IC50 [3]: > 20000 nM

Compound: NS(=O)(=O)c1cccc(-c2cccnc2)c1-c1nn[nH]n1
- IC50 [1]: 269 nM
- IC50 [2]: 24 nM
- Selectivity ratio [6]: 185
- MITC95 [4]: 0.39 µM
- MITC95 [5]: 50 µM
- Selectivity ratio [8]: 16
- IC50 [3]: 1780 nM
- MITC95 [9]: 50 µM
- Selectivity ratio [10]: 28

Compound: Nc1cc(-c2nnn[nH]2)c(S(N)(=O)=O)cc1S(N)(=O)=O
- IC50 [1]: 7 nM
- IC50 [2]: 3.3 nM
- IC50 [3]: 17 nM

Compound: NS(=O)(=O)c1nccc(-c2ccc(CO)cc2)c1-c1nn[nH]n1
- Activity [13]: inactive
- IC50 [1]: 269 nM
- Activity [14]: inactive
- IC50 [2]: 35 nM
- Activity [15]: Active
- MITC95 [4]: 0.558 µM
- Activity [16]: Active
- MITC95 [5]: 11.76 µM
- IC50 [17]: > 30000 nM
- IC50 [3]: 369 nM
- MITC95 [9]: 5.19 µM

Compound: Cc1ccc(-c2cccc(S(=O)(=O)O)c2-c2nnn[nH]2)cc1
- IC50 [1]: 8640 nM
- IC50 [2]: 4960 nM
- IC50 [3]: 2360 nM

Compound: NS(=O)(=O)c1nccc(-c2ccc(CO)cc2)c1-c1nnn[nH]1
- Vd [18]: 2.97 L/kg
- fraction unbound [19]: 0.43
- IC50 shift [20]: 1
- IC50 [21]: > 30000 nM
- AUC [22]: 111 µM·h
- IC50 [23]: > 30000 nM
- IC50 [24]: > 30000 nM
- Cmax [25]: 13.4 µM
- AUC [26]: 27.4 µM·h
- Tmax [27]: 30 min
- fraction unbound [28]: 0.3
- Tmax [29]: 49.8 min
- MRT [30]: 312 min
- clearance [31]: 9.33 mL/min/kg
- IC50 [32]: > 60000 nM
- IC50 [33]: > 30000 nM
- AUC [34]: 27.1 µM·h
- Emax at 30 µM [35]: 1.94%
- Cmax [36]: 69.1 µM
- fraction unbound [37]: 0.23
- IC50 [38]: > 30000 nM
